According to US10251392B2, “Antimicrobial devices and compositions” (Avent, Inc., priority 2004, dated 2019):

Assay: Light stability (discoloration by light exposure)
Format: physicochemical
Conditions: ambient / room light
Procedure: The term “light stable” in the present context is meant to indicate either of two conditions; (i) no visible change in the color of the compositions of patient and wound care products after 24 hour exposure to light conditions typically encountered indoors in hospital, offices, or home that are normally used to aid visibility.

- light sensitivity of the solid powder: remained unchanged
Compound: [Ag+].c1ccc2[n-]cnc2c1 [silver benzimidazole complex]
